Results on one compound are retold here after US20240285555A1, “COMPOSITIONS FOR THE TREATMENT OF COPPER DEFICIENCY AND METHODS OF USE” (priority 2018, published 2024).

SMILES strings stand for the structures.

One assay relates to ctr1Δ cells. The assay is described as follows: Respiratory growth rescue of ctr1Δ yeast. Type of assay: cell-based, Saccharomyces cerevisiae. The settings on record: non-fermentable media, 37° C. On the procedure:
Yeast Strains and Culture Conditions. The authenticity of yeast strains was confirmed by PCR as well as by replica plating on dropout plates. Yeast cells were cultured in standard YP growth media including YPD (1% yeast extract, 2% peptone and 2% glucose), YPGal (2% galactose), YPGE (3% glycerol+1% ethanol), or synthetic media (SC glucose). For qualitative growth measurement, 10-fold serial dilutions of overnight cultures were spotted on YPD or YPGE plates and incubated at 30° C. and 37° C. for the indicated period. Growth in liquid media was measured spectrophotometrically at 600 nm.
ES Rescues Many Different Yeast Mutants with Impaired Copper Metabolism. To test the specificity of ES mediated rescue, a number of yeast mutants of genes required for maintaining cellular and mitochondrial copper homeostasis were shortlisted. Genes were prioritized based on their evolutionary conservation, presence of pathogenic mutations in humans, and/or the existence of a related mouse phenotype (Table 3, shown below). […] Most of the yeast mutants were rescued with ES supplementation, albeit to different degrees, reflecting their distinct roles in cellular and mitochondrial copper homeostasis.

Another assay has as its system SCO2 patient fibroblasts. Nature of the assay: Steady state COX2 levels in SCO2 patient fibroblasts. Type of assay: cell-based, human. As to conditions: dose and time dependent. On the procedure: Mammalian Cell Culture. The human control MCH46 and SCO2 patient fibroblasts as well as the rat H9c2 control and Ctr1^−/− cardiomyocytes were cultured in high glucose Dulbecco's modified Eagle's medium (DMEM) supplemented with 10% fetal bovine serum (Sigma) and 1 mM sodium pyruvate (Life Technologies). The mouse embryonic fibroblasts were cultured in DMEM 10% FBS, 1 mM sodium pyruvate, 1× minimum essential medium non-essential amino acids (MEM NEAA; Life Technologies 11140), 50 μg/mL uridine, and 1× Pen Strep Glutamine (Life Technologies 10378). All cell lines were cultured under 5% CO2 at 37° C. and were treated with indicated concentrations of ES for 3-6 days before harvesting. Whole cell protein was extracted in lysis buffer (BP-115, Boston BioProducts) supplemented with protease inhibitor cocktail (Roche Diagnostics) and the protein concentrations were determined by BCA assay (Thermo Scientific).
(§1) Immunoblotting and In-gel Activities. Sodium dodecyl sulfate polyacrylamide gel electrophoresis (SDS-PAGE) and Blue Native PAGE (BN-PAGE) were performed to separate denatured and native protein complexes, respectively. For SDS-PAGE, mitochondrial lysate ([…]) was separated on NuPAGE 4-12% Bis-Tris gels (Life Technologies, Carlsbad, CA). For BN-PAGE, yeast mitochondria were solubilized in buffer containing 1% digitonin (Life Technologies) by incubating for 15 min at 4° C. […]

Assay [1] concerns CcO-containing mitochondrial respiratory chain supercomplexes. The assay is described as follows: Assembly and activity of CcO-containing supercomplexes (native PAGE blotting, in-gel activity). Type of assay: cell-based, Saccharomyces cerevisiae. The settings on record: 20 nM ES, YP galactose medium. As for the experimental part:
FIGS. 2A, 2B, 2C, 2D and 2E illustrate elesclomol supplementation rescues CcO assembly defects by restoring mitochondrial copper levels of yeast S. cerevisiae coa6Δ cells. FIGS. 2A-2C illustrate bioenergetic parameters of wild type (WT), coa6Δ, and coa6Δ cells supplemented with 20 nM ES were cultured in YP galactose medium until early stationary growth phase. […] Error bars represent mean±SD (n=3, two-tailed unpaired Student's t-test *p<0.05, **p<0.005).
as §1
A number of copper-binding pharmacological agents were tested for their ability to rescue respiratory deficient growth of coa6Δ cells. […] To determine the biochemical basis for the observed respiratory rescue of coa6Δ cells, the assembly and activity of CcO-containing mitochondrial respiratory chain supercomplexes was measured by native-polyacrylamide gel electrophoresis blotting and in-gel activity assay, respectively. […]

A further assay deals with Ctr1^−/− zebrafish. The assay is described as follows: Cox1 levels in mitochondrial extracts of Ctr1 mutant zebrafish. The settings on record: grown in the presence of ES until 10 dpf. Type of assay: in vivo. On the procedure: Zebrafish Experiments. […] Morpholino-based experiments were performed.
ES Supplementation Rescues Copper Deficiency Phenotypes in Zebrafish Models. To determine whether ES can rescue phenotypes associated with copper deficiency in an intact developing vertebrate animal model, zebrafish embryos with a null mutation in the gene encoding the plasma membrane copper importer Ctr1 were utilized. Zebrafish were chosen because of the ability to quickly monitor the pigmentation defect that arises due to the copper requirement of tyrosinase, an enzyme that catalyzes the critical step in melanin biosynthesis. Wild type zebrafish embryos have a characteristic melanin pigmentation pattern visible at 48 hpf. To determine if ES can rescue copper deficiency phenotypes in zebrafish, zebrafish embryos from heterozygous Ctr1 crosses in 10 nM ES were incubated and compared to untreated embryos. […] To determine whether ES can rescue the observed CcO assembly defect, clutches of embryos were grown from heterozygous Ctr1 crosses in the presence of ES until 10 dpf and levels of Cox1 in their mitochondrial extracts were measured.

As for `CN(NC(=O)CC(=O)NN(C)C(=S)c1ccccc1)C(=S)c1ccccc1` [ES, elesclomol], in the assay on ctr1Δ cells, the “rescue of respiratory growth” value is given as “higher concentration of ES is required to rescue”. In the assay with SCO2 patient fibroblasts, the “steady state levels of COX2” value was “partially rescue”. Also, the “abundance and activity of CcO-containing supercomplexes” value in assay [1] was “restored the abundance and activity of CcO-containing supercomplexes to near wild type levels”. The “Cox1 levels in mitochondrial extracts” value in the assay with Ctr1^−/− zebrafish was “almost completely rescued”.
